Laboratory results: patent US5849753A, “Pyridyl imidazole derivatives and processes for the preparation thereof” (Korea Research Institute of Chemical Technology, priority 1994, dated 1998)

Assays:
[1] = tested on: furosemide-administered dogs; experiment: Duration of action in furosemide-administered dogs; type: in vivo, dog; settings: 0.33 mg, per os
Description: (§1) The test dogs were anesthetized with 30 mg/kg of pentobarbital sodium by intravenous injection and the left femoral artery and femoral vein were separated carefully. Silicone catheter, specially prepared and filled with saline treated with heparin(1,000 IU/ml), was cannulated into the blood vessels. After the surgery, the dogs were constrained to measure their blood pressure continuously with Gould 2000 physiograph adapted to a Grass P23 XL pressure transducer; and their heart rates were monitored with ECG/Biotacho amplifier. The dogs were tested at least 2 days after the surgery.
10 mg/kg of furosemide was injected intramuscularly 18 hours(in case of intravenous injection, 2 hours) before the beginning of the test (administration of the test compound) to improve the activity of renin in blood plasma. After the injection of furosemide, neither food nor water was provided. […] The blood pressure and heart rate were measured up to 8 hours after the administration of each test compound.
The compound of Example 8 and the Merck compound were administered orally to the furosemide-administrated dogs as in test 3(i), and blood pressure lowering effect was measured with time.

[2] = Metabolite analysis (enzyme digestion test); type: in vitro ADME, male rats; settings: rat liver microsome and NADPH, 1 hour, 37° C., HPLC
Description: Enzyme digestion test was executed in order to detect the metabolite of the test compound in vivo.
A liver microsome and NADPH system of male rats were added to each of the present compound(Example 8) and the control compound(Merck), and the mixture was incubated for 1 hour at 37° C. The resultant was extracted with methanol or dichloromethane, and, thereafter, the organic layer was evaporated to obtain a residue. The residue was analyzed using high pressure liquid chromatography.

unanesthetized dogs = experiment: Blood pressure lowering effect in unanesthetized dogs (furosemide treated); type: in vivo, dog; parameters: Maximum blood pressure lowering effect in a dog: unit not given here; settings: oral; for Blood pressure variation with time: dogs, 1.0 mg
Description: A number of dogs were fed freely in a feeding room and those weighing 7 to 12 kg in good health were selected regardless of their gender.
as §1
10 mg/kg of furosemide was injected intramuscularly 18 hours(in case of intravenous injection, 2 hours) before the beginning of the test (administration of the test compound) to improve the activity of renin in blood plasma. After the injection of furosemide, neither food nor water was provided. The test compound was suspended in Tween 80 and administered in an amount of 20 mg/kg orally. The blood pressure and heart rate were measured up to 8 hours after the administration of each test compound.
The maximum blood pressure lowering effect of the present compounds and the control compounds were determined in different amounts of administration using the same method as […]

renal hypertensive rat [3] = experiment: Blood pressure lowering effect on oral administration to rats at several doses; type: in vivo, male Sprague-Dawley rats
Text: (§2) To induce renal hypertension, left renal artery of 4 week-old male Sprague-Dawley rats(from The Korea Research Institute of Chemical Technology) was ligated. The rats were anesthetized with ether and the surgical region on the left abdomen of the rat was shaved, disinfected, and then incised about 1 cm vertically. The renal artery near abdominal aorta was isolated carefully from surrounding tissues and veins, and then ligated completely with a suture(4/0 sterile surgical silk). The muscular strata and skin of the surgical area were sutured with a suture(4/0 sterile surgical silk). The surgical region was disinfected to prevent infection and thereafter, 200 to 250 mg/Kg/day of cephazolin sodium was injected intramuscularly for 2 days. 6 to 8 days after the ligation, rats showing systolic pressure of more than 180 mmHg were selected for renal hypertension test. The blood pressure was determined by a tail-cuff method from the tail under unanesthetized condition(Gerold, M. et al., Arzneimittrel-Forsch, 18, 1285(1968)).
(§3) Each of the compounds to be tested was administered intravenously or orally into the renal hypertensive rat. The blood pressure of the rats was determined by direct method(Chiu, A. T. et al., J. Pharmacol. Exp. Ther. 250, 867(1989)) using a catheter. The rats were anesthetized with ketamine hydrochloride(125 mg/kg, i.p.) and a catheter was filled with saline and inserted into a carotid artery and carotid vein. The surgical area was sutured with a metal clip. The rats were relaxed at least 3 hours and the catheter in the carotid artery was adapted to an isotec pressure transducer to determine their blood pressure and heart rate with a physiograph(Linearcorder WR3310). After the blood pressure was stabilized, the test compound was administered intravenously or orally. For intravenous administration, the administered volume and washing volume were 1.0 ml/Kg and 0.2 ml, respectively. The blood pressure and heart rate were measured in regular intervals up to 24 hours after the administration of the test compound and compared with those measured after the administration of the control compound Losartan.
(§4) The test compound was dissolved in 0.05N KOH for intravenous administration and suspended in Tween 80 for oral administration.
(iii) Blood pressure lowering effect The present compounds, Losartan(Dup 753) and the Merck compound were administrated orally to rats in 10, 3, 1, 0.3 and 0.1 mg/kg under the same condition as in (ii) and the blood pressure lowering effect was determined.

renal hypertensive rats = experiment: Duration of action in renal hypertensive rats; type: in vivo, male Sprague-Dawley rats; settings: oral
Text: as §2, §3
The present(Example 28) and control(Merck) compounds were tested using the hypertensive rats of test 2(i). 1 mg or 3 mg/kg of each compound was administered orally and blood pressure lowering effect with time was determined to measure the duration of action of the compounds.

renal hypertensive rat [4] = experiment: Blood pressure lowering effect in renal hypertension (renal hypertensive rats, intravenous or oral); type: in vivo, male Sprague-Dawley rats; settings: 1 mg, read-out: Maxium Blood Pressure Lowering Effect(%)
Text: as §2, §3, §4

angiotensin II receptor = experiment: Angiotensin II Receptor Binding Assay ([3H] angiotensin II binding inhibition); settings: [3H] angiotensin II ligand; 60 minutes, 25° C.; test concentration not given
Description: In accordance with the procedure disclosed in Chiu, A. T. et al., Eur. J. Pharm., 157, 13(1981), a ligand marked with a radioisotope was reacted with an angiotensin II receptor and the reactant was filtered with a glass fiber to remove unreacted ligand. After washing the filter, the amount of the remaining isotope was measured to determine the binding activity of the ligand, as described below in detail.
Sprague-Dawley rats and Wistar rats of 250 to 350 g(from The Korea Research Institute of Chemical Technology) were tested and the test procedures were carried out at 4° C., unless otherwise specified. Adrenal gland was separated from the Sprague-Dawley rats(liver, in the case of Wistar rats) into cortex and medulla. The separated adrenal cortex and medulla were washed with a sucrose buffer solution (0.2M sucrose, 1 mM EDTA, 10 mM Tris, pH 7.2) and homogenized in the same buffer solution by using a Teflon pestle and a Brinkmann homogenizer. The homogenates were centrifuged at 3,000 Xg for 10 minutes to remove precipitates and further centrifuged at 12,000 Xg for 13 minutes. The final supernatants were centrifuged at 102,000 Xg for 1 hour to obtain precipitates, which were washed with a Tris buffer solution(50 mM Tris, 5 mM MgCl2, pH 7.2) and re-centrifuged at 102,000 Xg for 1 hour. The resulting precipitates were immediately processed at the following step or stored at -70° C.
The precipitates were suspended in a Tris buffer solution. The amount of protein was determined by using a Bio-Rad DC protein analyzing kit and the protein concentration was adjusted to the amounts of: 0.2 to 0.3 mg/ml(Sprague-Dawley rat: adrenal cortex), 1.5 to 2.0 mg/ml(Sprague-Dawleyrat: adrenal medulla), and 1.5 to 2.0 mg/ml(Wistar rat: liver). To the suspension, bovine serum albumin(BSA) was added to a concentration of 0.25 wt % and the resultant was immediately processed at the following step or stored at -70° C.
(ii) Measurement of angiotensin II receptor binding capacity 50 μl(based on ligand) of [^3 H] angiotensin II(NEN, NET-446) and 10 μl of each of the test compounds with various concentrations were added to the buffer solution(50 mM Irris(pH 7.2), 5 mM MgCl2, 0.25% BSA) to adjust the final volume to be 0.5 ml. 100 μl of the receptor suspension was added thereto and the resulting solution was reacted for 60 minutes while stirring in a water bath at 25° C. 3 ml of cold buffer solution for analysis was added to cease the reaction. The isotope which was bound to the receptor was isolated from the resultant by using Brandel Cell Harvester System with Whatman glass fiber GF/C. After washing the filter, the radioactivity of the filter was determined by using a liquid scintillation counter. Binding inhibition(%) of the test compound was calculated as follows:
Binding Inhibition(%)=[{(T--B)-(S--B)}/(T--B)]×100
wherein T is cpm of the reaction product untreated with the test compound, S is cpm of the reaction product treated with the test compound, and B is cpm of blank test.

SMILES: CCc1nc2c(C)cc(C)nc2n1Cc1ccc(-c2ccccc2-c2nnn[nH]2)cc1 [Merck compound, reference compound]
- blood pressure lowering effect with time ([1]; 0 min): 0.0%
- blood pressure lowering effect with time ([1]; 10 min): -5.0%
- blood pressure lowering effect with time ([1]; 20 min): -12.2%
- blood pressure lowering effect with time ([1]; 30 min): -14.4%
- blood pressure lowering effect with time ([1]; 60 min): -20.1%
- blood pressure lowering effect with time ([1]; 90 min): -24.4%
- blood pressure lowering effect with time ([1]; 120 min): -19.1%
- blood pressure lowering effect with time ([1]; 150 min): -24.2%
- blood pressure lowering effect with time ([1]; 180 min): -18.9%
- blood pressure lowering effect with time ([1]; 210 min): -17.0%
- blood pressure lowering effect with time ([1]; 240 min): -17.0%
- blood pressure lowering effect with time ([1]; 270 min): -13.4%
- blood pressure lowering effect with time ([1]; 300 min): -14.9%
- blood pressure lowering effect with time ([1]; 330 min): -15.6%
- blood pressure lowering effect with time ([1]; 360 min): -15.6%
- blood pressure lowering effect with time ([1]; 390 min): -11.4%
- blood pressure lowering effect with time ([1]; 420 min): -10.7%
- blood pressure lowering effect with time ([1]; 450 min): -11.4%
- blood pressure lowering effect with time ([1]; 480 min): -13.8%
- metabolite from the enzymatic digestion [2]: has a metabolite
- Maximum blood pressure lowering effect in a dog (unanesthetized dogs; 0.1 mg/kg): 20
- Maximum blood pressure lowering effect in a dog (unanesthetized dogs; 0.3 mg/kg): 24
- blood pressure lowering effect (renal hypertensive rat [3]; 3 mg/kg): 40%
- blood pressure lowering effect with time (renal hypertensive rats; 3 mg/kg, 0 min): 0%
- blood pressure lowering effect with time (renal hypertensive rats; 3 mg/kg, 10 min): -15%
- blood pressure lowering effect with time (renal hypertensive rats; 3 mg/kg, 20 min): -27%
- blood pressure lowering effect with time (renal hypertensive rats; 3 mg/kg, 30 min): -28%
- blood pressure lowering effect with time (renal hypertensive rats; 3 mg/kg, 60 min): -26%
- blood pressure lowering effect with time (renal hypertensive rats; 3 mg/kg, 90 min): -28%
- blood pressure lowering effect with time (renal hypertensive rats; 3 mg/kg, 120 min): -25%
- blood pressure lowering effect with time (renal hypertensive rats; 3 mg/kg, 240 min): -40%
- blood pressure lowering effect with time (renal hypertensive rats; 3 mg/kg, 360 min): -36%
- blood pressure lowering effect with time (renal hypertensive rats; 3 mg/kg, 1320 min): -35%
- blood pressure lowering effect with time (renal hypertensive rats; 3 mg/kg, 1440 min): -40%
- blood pressure lowered (renal hypertensive rats; 3 mg/kg, time in minutes not given): -40%

SMILES: CCCCc1nc2c(C)c(-c3ccccc3)c(C(OC)OC)nc2n1Cc1ccc(-c2ccccc2-c2nnn[nH]2)cc1 [Example 28, 2-butyl-5-dimethoxymethyl-6-phenyl-7-methyl-3-[2'-(1H-tetrazol-5-yl)-biphenyl-4-ylmethyl]-3H-imidazo[4,5-b]pyridine]
- change in vivo at 1 mg (renal hypertensive rat [4]): -47%
- Binding Inhibition(%) (angiotensin II receptor): 50.5%
- Maximum blood pressure lowering effect in a dog (unanesthetized dogs; 0.1 mg/kg): 9
- Maximum blood pressure lowering effect in a dog (unanesthetized dogs; 0.3 mg/kg): 18
- Maximum blood pressure lowering effect in a dog (unanesthetized dogs; 1 mg/kg): 33
- Blood pressure variation with time (unanesthetized dogs; 0.5 hr): -3.3%
- Blood pressure variation with time (unanesthetized dogs; 1 hr): -18.9%
- Blood pressure variation with time (unanesthetized dogs; 2 hr): -27.7%
- Blood pressure variation with time (unanesthetized dogs; 4 hr): -33.3%
- Blood pressure variation with time (unanesthetized dogs; 6 hr): -29.5%
- Blood pressure variation with time (unanesthetized dogs; 8 hr): -27.1%
- blood pressure lowering effect (renal hypertensive rat [3]; 0.3 mg/kg): 13%
- blood pressure lowering effect (renal hypertensive rat [3]; 1 mg/kg): 47%
- blood pressure lowering effect compared with the Merck compound (renal hypertensive rat [3]; Table 2): far superior effect
- duration of action compared with the Merck compound (renal hypertensive rats; 1 mg/kg versus Merck compound 3 mg/kg): far longer duration of action
- blood pressure lowering effect with time (renal hypertensive rats; 1 mg/kg, 0 min): 0%
- blood pressure lowering effect with time (renal hypertensive rats; 1 mg/kg, 10 min): -16%
- blood pressure lowering effect with time (renal hypertensive rats; 1 mg/kg, 20 min): -17%
- blood pressure lowering effect with time (renal hypertensive rats; 1 mg/kg, 30 min): -18%
- blood pressure lowering effect with time (renal hypertensive rats; 1 mg/kg, 60 min): -21%
- blood pressure lowering effect with time (renal hypertensive rats; 1 mg/kg, 90 min): -34%
- blood pressure lowering effect with time (renal hypertensive rats; 1 mg/kg, 120 min): -33%
- blood pressure lowering effect with time (renal hypertensive rats; 1 mg/kg, 240 min): -46%
- blood pressure lowering effect with time (renal hypertensive rats; 1 mg/kg, 360 min): -47%
- blood pressure lowering effect with time (renal hypertensive rats; 1 mg/kg, 1320 min): -25%
- blood pressure lowering effect with time (renal hypertensive rats; 1 mg/kg, 1440 min): -28%
